Counter-ions that a name gives are not always drawn. Like-named read-outs stand apart in the source and are kept apart here. One block for each molecule: values may come before it.
What was measured:
P-glycoprotein = details: result in words; cited from earlier work
[1] = reported, no reference given, cited from earlier work
E. coli cells = assay: Toxicity assay; details: MTS, 50 μg/ml, positive control
[2] = target: T1, mammalian GUS purified from Bovine taurus liver (Bos taurus, UniProt A3KMY8); assay: B. taurus GUS enzyme assay; assay type: biochemical; details: for activity against purified mammalian GUS: result in words
T1 sequence (A3KMY8 1-652): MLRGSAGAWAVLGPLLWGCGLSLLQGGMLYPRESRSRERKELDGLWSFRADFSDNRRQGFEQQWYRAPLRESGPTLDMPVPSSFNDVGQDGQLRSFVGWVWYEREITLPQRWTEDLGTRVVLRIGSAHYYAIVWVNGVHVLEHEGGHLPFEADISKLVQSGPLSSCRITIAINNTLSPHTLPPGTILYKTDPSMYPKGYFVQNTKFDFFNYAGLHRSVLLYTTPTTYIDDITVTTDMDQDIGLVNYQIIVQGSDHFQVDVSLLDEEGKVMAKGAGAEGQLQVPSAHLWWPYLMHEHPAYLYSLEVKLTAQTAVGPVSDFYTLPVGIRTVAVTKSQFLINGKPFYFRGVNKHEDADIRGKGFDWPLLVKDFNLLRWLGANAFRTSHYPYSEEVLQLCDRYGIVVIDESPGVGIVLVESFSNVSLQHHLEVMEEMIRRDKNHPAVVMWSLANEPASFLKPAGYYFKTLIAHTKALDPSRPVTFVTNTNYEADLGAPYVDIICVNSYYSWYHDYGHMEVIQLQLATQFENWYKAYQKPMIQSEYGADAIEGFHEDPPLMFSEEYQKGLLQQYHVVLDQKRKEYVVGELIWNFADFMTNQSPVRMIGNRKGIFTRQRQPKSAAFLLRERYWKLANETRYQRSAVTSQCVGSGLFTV

[3] = target: endogenous GUS in living intact E. coli (DH5α) (Escherichia coli, UniProt P05804); assay: E. coli cell-based GUS activity assay; details: IC50 shift; for fold less potent in cell-based assay compared to E. coli GUS enzyme assay: less potent in cells
[4] = system: MAO (MAO-A, MAO-B or total activity); details: read-out: IC50 for MAO; depending on subclass of MAO-A or MAO-B, or total activity; reported, no reference given; cited from earlier work
[5] = target: purified E. coli GUS enzyme (Escherichia coli, UniProt P05804); assay: E. coli GUS enzyme assay; assay type: biochemical
in vitro = details: E. coli

endogenous GUS in living intact E. coli (DH5α), sequence (P05804 whole entry): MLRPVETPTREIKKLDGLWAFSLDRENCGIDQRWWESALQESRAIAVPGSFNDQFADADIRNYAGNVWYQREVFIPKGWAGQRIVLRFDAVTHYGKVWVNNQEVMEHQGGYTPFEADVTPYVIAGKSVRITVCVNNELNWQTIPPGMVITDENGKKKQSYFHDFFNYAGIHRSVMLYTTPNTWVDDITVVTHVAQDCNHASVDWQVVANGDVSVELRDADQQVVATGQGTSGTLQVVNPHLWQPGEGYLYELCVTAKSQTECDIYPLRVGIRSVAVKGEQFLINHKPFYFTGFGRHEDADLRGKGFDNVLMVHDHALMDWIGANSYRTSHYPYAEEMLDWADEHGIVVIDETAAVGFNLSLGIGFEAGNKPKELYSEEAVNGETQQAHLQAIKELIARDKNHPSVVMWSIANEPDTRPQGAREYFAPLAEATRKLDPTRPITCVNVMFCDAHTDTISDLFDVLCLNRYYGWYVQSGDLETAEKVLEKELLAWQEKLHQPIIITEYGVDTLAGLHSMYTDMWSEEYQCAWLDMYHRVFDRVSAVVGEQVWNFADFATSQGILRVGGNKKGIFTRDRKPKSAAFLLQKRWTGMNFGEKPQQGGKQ
purified E. coli GUS enzyme, sequence (P05804 whole entry): as above

SMILES: Clc1ccc2c(c1)C(N1CCNCC1)=Nc1ccccc1O2 [Amoxapine, amoxapine]
inhibition of P-glycoprotein (P-glycoprotein): potent non-competitive inhibitors
normal blood levels ([1]; converted from μg/ml): 54 to 669 nM
normal blood levels [1]: 0.017 to 0.21 µg/mL

SMILES: NC[C@H]1O[C@H](O[C@H]2[C@H](O)[C@@H](O[C@H]3O[C@H](CO)[C@@H](O)[C@H](N)[C@H]3O)[C@H](N)C[C@@H]2N)[C@H](O)[C@@H](O)[C@@H]1O [Kanamycin, kanamycin]
reduction of activity in viability assay (E. coli cells): over 90%

SMILES: O=C(CCNNC(=O)c1ccncc1)NCc1ccccc1 [Nialamide, nialamide]
activity against purified mammalian GUS [2]: no significant activity
fold more potent in cell-based assay compared to E. coli GUS enzyme assay ([3]; more potent in cells): 4 fold

SMILES: NNCCc1ccccc1 [Phenelzine, phenelzine]
IC50 [4]: 70 to 900 nM
inhibition in Prestwick collection screen ([5]; single point, 10 μM compound, high throughput GUS enzyme assay, 10 µM): > 50%

SMILES: OC(c1cc(C(F)(F)F)nc2c(C(F)(F)F)cccc12)C1CCCCN1 (stereo not drawn) [Mefloquine, mefloquine hydrochloride]
viability at 2 h, 10 µM (in vitro): 100%
fold less potent in cell-based assay compared to E. coli GUS enzyme assay [3]: over 4.9 fold
fold less potent in cell-based assay compared to E. coli GUS enzyme assay ([3]; listed as mefloquine): 5 fold

IC50 [2]: > 100000 nM
activity against purified mammalian GUS [2]: no significant activity
SMILES: Cc1cc(C(=O)NNCc2ccccc2)no1 [Isocarboxazid, isocarboxazid]

SMILES: CN1CCN(C2=Nc3ccccc3Oc3ccc(Cl)cc32)CC1 [Loxapine, loxapine]
loss in potency versus amoxapine ([5]; E. coli GUS enzyme assay, methyl group on the piperazine ring): > 250 fold
inhibition of P-glycoprotein (P-glycoprotein): potent non-competitive inhibitors

— PMC8284931 (Journal of biomolecular screening, 2012)
